Read-outs that look alike come from different tables or passages of the source.
Molecular target: T1, human CB2R (Homo sapiens, UniProt P34972)
T1 construct: host or cells: CHO cells
Experiment: CB2R mediated modulation of cAMP synthesis
Format: cell-based
Settings: for agonistic activity: found through the use of the described assays (CB2 agonists), qualitative statement; for Emax: 0.5 h, read-out: Agonist Efficacy (%)
In short: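 Forskolin (10 uM)-driven cAMP in human CB2R-expressing CHO cells, read with DiscoverX-XS kit after 30 min compound exposure at 37 °C, 1 mM IBMX, 0.25% BSA. 100% defined as forskolin cAMP relative to 1 uM CP55940 inhibition. Agonist EC50 via four-parameter logistic model.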

[1] = CHO cells expressing human CB2R, cAMP inhibited by 1 uM CP55940 defined as 100%

T1 sequence (P34972 whole entry): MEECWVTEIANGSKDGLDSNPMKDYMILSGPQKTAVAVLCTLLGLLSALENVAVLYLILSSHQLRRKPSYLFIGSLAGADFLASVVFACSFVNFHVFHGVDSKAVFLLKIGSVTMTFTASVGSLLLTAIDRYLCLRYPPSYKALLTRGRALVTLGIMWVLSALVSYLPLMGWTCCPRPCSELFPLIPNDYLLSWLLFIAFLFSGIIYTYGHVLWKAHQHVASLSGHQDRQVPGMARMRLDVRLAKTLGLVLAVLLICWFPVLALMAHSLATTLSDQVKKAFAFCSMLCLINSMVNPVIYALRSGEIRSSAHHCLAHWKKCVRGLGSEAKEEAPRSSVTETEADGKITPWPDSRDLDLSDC

Row | agonistic activity | SMILES | further results
1 | agonistic activity | CC(C)c1ccc(NC(=O)N2CCCN(C(=O)c3ccccc3)CC2)cc1 [4-Benzoyl-[1,4]diazepane-1-carboxylic acid (4-isopropyl-phenyl)-amide] | –
2 | agonistic activity | Cn1c(NC(=O)N2CCCN(C(=O)C3CCOCC3)CC2)nc2ccccc21 [4-(Tetrahydro-pyran-4-carbonyl)-[1,4]diazepane-1-carboxylic acid (1-methyl-1H-benzoimidazol-2-yl)-amide] | –
3 | agonistic activity | CC(C)c1cnc(NC(=O)N2CCCN(C(=O)C3CCOCC3)CC2)s1 [4-(Tetrahydro-pyran-4-carbonyl)-[1,4]diazepane-1-carboxylic acid (5-isopropyl-thiazol-2-yl)-amide] | –
4 | agonistic activity | CCC(C)c1ccc(NC(=O)N2CCCN(C(=O)C3CCOCC3)CC2)cc1 (centres unmarked) [4-(Tetrahydro-pyran-4-carbonyl)-[1,4]diazepane-1-carboxylic acid (4-sec-butyl-phenyl)-amide] | –
5 | agonistic activity | Cc1nc(NC(=O)N2CCCN(C(=O)C3CCOCC3)CC2)sc1C(C)(C)C [4-(Tetrahydro-pyran-4-carbonyl)-[1,4]diazepane-1-carboxylic acid (5-tert-butyl-4-methyl-thiazol-2-yl)-amide] | –
6 | agonistic activity | CCC(C)c1ccc(NC(=O)N2CCCN(C(=O)CC3CCOCC3)CC2)cc1 (centres unmarked) [4-(2-Tetrahydro-pyran-4-yl-acetyl)-[1,4]diazepane-1-carboxylic acid (4-sec-butyl-phenyl)-amide] | –
7 | agonistic activity | CC(C)(C)c1cc(NC(=O)N2CCCN(C(=O)N3CCSCC3)CC2)no1 [4-(Thiomorpholine-4-carbonyl)-[1,4]diazepane-1-carboxylic acid (5-tert-butyl-isoxazol-3-yl)-amide] | –
8 | agonistic activity | CC(=O)N1CCN(C(=O)N2CCCN(C(=O)Nc3cc(C(C)(C)C)on3)CC2)CC1 [4-(4-Acetyl-piperazine-1-carbonyl)-[1,4]diazepane-1-carboxylic acid (5-tert-butyl-isoxazol-3-yl)-amide] | –
9 | agonistic activity | CC(C)(C)c1ccc(NC(=O)N2CCCN(C(=O)C3CCCC3)CC2)cc1 [4-Cyclopentanecarbonyl-[1,4]diazepane-1-carboxylic acid (4-tert-butyl-phenyl)-amide] | –
10 | agonistic activity | CCCCc1ccc(NC(=O)N2CCCN(C(=O)CCC3CC3)CC2)cc1 [4-(3-Cyclopropyl-propionyl)-[1,4]diazepane-1-carboxylic acid (4-butyl-phenyl)-amide] | –
11 | agonistic activity | O=C(Nc1ccc2ccccc2c1)N1CCCN(C(=O)C2CCOCC2)CC1 [4-(Tetrahydro-pyran-4-carbonyl)-[1,4]diazepane-1-carboxylic acid naphthalen-2-ylamide] | –
12 | agonistic activity | CC1(O)CCC(C(=O)N2CCCN(C(=O)Nc3cc(C(C)(C)C)on3)CC2)CC1 (centres unmarked) [4-(4-Hydroxy-4-methyl-cyclohexanecarbonyl)-[1,4]diazepane-1-carboxylic acid (5-tert-butyl-isoxazol-3-yl)-amide] | –

Further lines, the compound ahead of its results:

Row | SMILES | agonistic activity | further results
13 | O=C(CC1CCCC1)N1CCCN(C(=O)Nc2ccc(C(F)(F)F)cc2)CC1 [4-(2-Cyclopentyl-acetyl)-[1,4]diazepane-1-carboxylic acid (4-trifluoromethyl-phenyl)-amide] | agonistic activity | –
14 | CCc1ccc(NC(=O)N2CCCN(C(=O)CC3CCCCC3)CC2)cc1 [4-(2-Cyclohexyl-acetyl)-[1,4]diazepane-1-carboxylic acid (4-ethyl-phenyl)-amide] | agonistic activity | –
15 | CC(C)(C)c1cc(NC(=O)N2CCCN(C(=O)N3CCCCC3)CC2)no1 [Compound 198, 4-(Piperidine-1-carbonyl)-[1,4]diazepane-1-carboxylic acid (5-tert-butyl-isoxazol-3-yl)-amide] | – | EC50: 47 nM; Emax (CHO): 99%
16 | CC(C)(C)c1cc(NC(=O)N2CCCN(C(=O)c3ccc(C(F)(F)F)cc3)CC2)no1 [4-(4-Trifluoromethyl-benzoyl)-[1,4]diazepane-1-carboxylic acid (5-tert-butyl-isoxazol-3-yl)-amide] | agonistic activity | –
17 | CC(C)(C)c1ccc(NC(=O)N2CCCN(C(=O)CCC3CCCCC3)CC2)cc1 [Compound 108, 4-(3-Cyclohexyl-propionyl)-[1,4]diazepane-1-carboxylic acid (4-tert-butyl-phenyl)-amide] | – | Emax [1]: 96%; EC50 (read-out: hCB2 cAMP EC50): 21 nM
18 | CC(C)(C)c1cc(NC(=O)N2CCCN(C(=O)C3CCCOC3)CC2)no1 (centres unmarked) [4-(Tetrahydro-pyran-3-carbonyl)-[1,4]diazepane-1-carboxylic acid (5-tert-butyl-isoxazol-3-yl)-amide] | agonistic activity | –
19 | O=C(CC1CCCCC1)N1CCCN(C(=O)Nc2ccc3ccccc3c2)CC1 [4-(2-Cyclohexyl-acetyl)-[1,4]diazepane-1-carboxylic acid (2-naphthyl)-amide] | agonistic activity | –
20 | O=C(Nc1ccc2ccccc2c1)N1CCCN(C(=O)c2cc(Cl)ccc2Cl)CC1 [4-(2,5-Dichloro-benzoyl)-[1,4]diazepane-1-carboxylic acid naphthalen-2-ylamide] | agonistic activity | –
21 | Cc1ccc(C(=O)N2CCCN(C(=O)Nc3ccc(C(C)(C)C)cc3)CC2)cc1 [Compound 122, 4-(4-Methyl-benzoyl)-[1,4]diazepane-1-carboxylic acid (4-tert-butyl-phenyl)-amide] | – | Emax [1]: 101%; EC50 (read-out: hCB2 cAMP EC50): 100 nM
22 | COC1CCC(C(=O)N2CCCN(C(=O)Nc3cc(C(C)(C)C)on3)CC2)CC1 (centres unmarked) [4-(4-Methoxy-cyclohexanecarbonyl)-[1,4]diazepane-1-carboxylic acid (5-tert-butyl-isoxazol-3-yl)-amide] | agonistic activity | –
23 | CC(C)(C)c1cc(NC(=O)N2CCCN(C(=O)N3CCC(S(C)(=O)=O)CC3)CC2)no1 [4-(4-Methanesulfonyl-piperidine-1-carbonyl)-[1,4]diazepane-1-carboxylic acid (5-tert-butyl-isoxazol-3-yl)-amide] | agonistic activity | –
24 | CCCCCc1ccc(NC(=O)N2CCCN(C(=O)CC3CCOCC3)CC2)cc1 [4-(2-Tetrahydro-pyran-4-yl-acetyl)-[1,4]diazepane-1-carboxylic acid (4-pentyl-phenyl)-amide] | agonistic activity | –
25 | CC(C)(C)c1cc(NC(=O)N2CCCN(C(=O)C3CCOCC3)CC2)no1 [4-(Tetrahydro-pyran-4-carbonyl)-[1,4]diazepane-1-carboxylic acid (5-tert-butyl-isoxazol-3-yl)-amide] | agonistic activity | –
26 | O=C(Nc1ccc(C(F)(F)F)cc1)N1CCCN(C(=O)C2CCCCC2)CC1 [Compound 128, 4-Cyclohexanecarbonyl-[1,4]diazepane-1-carboxylic acid (4-trifluoromethyl-phenyl)-amide] | – | Emax [1]: 107%; EC50 (read-out: hCB2 cAMP EC50): 71 nM
27 | Cc1sc(NC(=O)N2CCCN(C(=O)C3CCOCC3)CC2)nc1C(C)(C)C [Compound 186, 4-(Tetrahydro-pyran-4-carbonyl)-[1,4]diazepane-1-carboxylic acid (4-tert-butyl-5-methyl-thiazol-2-yl)-amide] | – | Emax [1]: 91%; EC50 (read-out: hCB2 cAMP EC50): 58 nM
